A word on the IC50: it is the concentration needed to halve the response being measured.

Where two headings read alike, the source gives them in different places. Square brackets hold non-standard residues; d marks the D form. Peptide text beside a SMILES is read from it. * marks the point of attachment. code Z = Europium label (diethylenetriaminepentaacetatoeuropium); NHOctadecyl = CCCCCCCCCCCCCCCCCCN*; NHPhenethyl = c1ccc(CCN*)cc1; Morpholide = C1CN(*)CCO1; PhAc = O=C(Cc1ccccc1)*; Ahx = NCCCCCC(=O)O

Series [1] concerns murine contact hypersensitivity. As to conditions: cited from earlier work.
The conditions of series [2]: Elices et al. 1993; by proteolytic degradation; cited from earlier work.
In series [3] the test system is New Zealand white rabbits. The series is described as follows: Treatment of asthmatic rabbits (house dust mite antigen challenge, crossover). It is filed as in vivo, rabbit. The protocol: Six New Zealand white rabbits were immunized with house dust mite antigen from birth through four months of age. Upon immunization, three rabbits received a single nebulizer administration of the inhibitor peptide N-phenylacetyl-Leu-Asp-Phe-morpholinamide in aqueous 50 percent ethanol as diluent in an amount of 100 mg/kg, and the other three received diluent alone. All of the rabbits were challenged with house dust mite antigen about 15-30 minutes after administration of the peptide, with those animals not receiving peptide serving as controls.
Once immunized and challenged, the inflammatory state subsides to a basal level within about three weeks. The three animals used as controls were thereafter used as subjects for receipt of an inhibitor peptide, and the three rabbits that initially received the peptide can serve as controls.
Such a crossover study was done here. Thus, the three initial control rabbits were treated with the above inhibitor peptide in the above diluent at a time more than three weeks after the above study, and the three previous recipients of the peptide were administered the diluent alone. All six were than challenged again.
Initial pulmonary function, measured by dynamic compliance (Cdyn) and lung resistance (RL), and bronchoalveolar lavage (BAL) to obtain an effector cell count, here eosinophils, were conducted prior to administration of the peptide or diluent for both portions of this crossover study. Similar assays were then taken one-half hourly after challenge for six hours (early phase allergic reaction) and at 24 hours after challenge (late stage allergic reaction) for both portions of this study.
These studies were conducted by Dr. W. J. Metzger of East Carolina University, Greenville, N.C. as described by W. J. Metzger in CRC Handbook of Late Phase Reactions, W. Dorsch, ed., Chapter 35, CRC Press, Boca Raton, Fla. (1990) pages 347-362.
The results of this study for the pulmonary function parameters are shown in FIG. 4A and FIG. 4B, in which data for the challenged, inhibitor peptide-treated animals are shown as open circles and data for the challenged, untreated, control animals are shown in blackened circles.

Series [4] concerns the target T1, VLA-4 (Homo sapiens, UniProt P05556+P13612). As to the kind of experiment: cell-based. It counts as cell-based. Further details: host or cells: Jurkat (human T lymphoblastic line). The essentials: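 51Cr-labelled Jurkat cells (human T lymphoblastic) were preincubated 30 min at about 22 °C with peptide, then allowed to bind 30 min at 37 °C to wells coated with CS-1 peptide or CS-1-OVA. After washing, bound cells were lysed with SDS and counted. IC50 is the peptide concentration halving binding, normalized to plate controls.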

A short description of series [5]: Retention of potency in PBS containing 10 percent serum. As to conditions: PBS at 7.2-7.4 containing 10 percent mouse or human serum.
The test system of series [6] is BALB/c mice. As to the kind of experiment: Delayed type hypersensitivity in mice (adoptive transfer, oxazolone). It counts as in vivo, mouse. The following applies: 6 mg/kg/day subcutaneously by implanted pump for 24 hours; FIG. 5. The protocol:
An adoptive transfer delayed-type hypersensitivity murine model has been developed using splenic T cells primed to oxazolone. This model is described in Elices et al., Clin. Exp. Rheum., 11(Suppl. 8):577-580 (1993), whose procedures were followed here.
Thus, BALB/c mice were shaved on the belly and painted (50 μl on the belly and 5 μl on each paw) with three percent oxazolone in acetone/olive oil (4:1) at days zero and 1. At day 5, the mice were sacrificed, their spleens removed, and splenic T cells were obtained via nylon wool columns.
Normal saline or saline containing 25×10^6 /animal of the oxazolone-immune T cells were separately injected into naive mice. The mice were then challenged by painting 10 μl of 2 percent oxazolone onto one ear each. All procedures were carried out under sterile conditions and in endotoxing-free buffers.
Prior to challenge or saline injection, the mice were implanted with pumps that subcutaneously administered normal saline, normal saline containing the peptide N-phenylacetyl-Leu-Asp-Phe-D-Pro-NH2 or normal saline containing a peptide with a scrambled sequence continually at 6 mg/kg/day for a 24-hour time period. The swelling diameter at the site of challenge or saline injection was measured with a microcaliper 24 hours thereafter.

Series [7] in a line: Toxicity study at 600 mg/kg/day. It is filed as in vivo. From the text: The results of this study are shown in the graph of FIG. 5 for the saline and recited inhibitor peptide treatments.
The subject of series [8] is New Zealand white rabbit. The series is described as follows: Rabbit cardiac allograft model. It is filed as in vivo. As to conditions: 1 mg/kg/day injections, day 7. As for the experimental part:
New Zealand white rabbit SPF hearts were allografted into the necks of similar rabbits to assay a graft-vs-host immunorejection model and the affect of a contemplated peptide on that immunoinflammatory response. These studies were carried out by Dr. M. Rabinovitch of the Hospital for Sick Children, Toronto, Ontario, Canada.
Here, two rabbits were injected on day zero with 1 mg/kg/day of the inhibitor peptide N-phenylacetyl-Leu-Asp-Phe-D-Pro-NH2 in aqueous diluent. The two rabbits then each received a grafted heart, with the graft being made in the carotid artery to the aorta of the grafted heart, and the jugular vein to the pulmonary artery of the grafted heart. The rabbits thereafter received daily injections of the same dose of that peptide, and were sacrificed on day 7. Another animal that received normal saline injections in place of the peptide injections, also received a similarly allografted heart, and was similarly sacrificed at day 7.
The animals' blood vessels were thereafter examined histologically for evidence of arteriopathy, and particularly thickening of the intimal elastic lamina (IEL) layer of the coronary arteries. Thickening of the IEL is caused at least in part by emigration of effector cells bearing the CD2 marker such as T cells and NK cells. Clausell et al., Am. J. Path., 142(6):1772-1786 (1993). […]

The subject of series [9] is SJL/J mice. As to the kind of experiment: Experimental autoimmune encephalomyelitis in mice. As to conditions: 1 mg/mouse intraperitoneally at days 8 and 9; versus scrambled control peptide; FIG. 6. It is filed as in vivo. The text has this:
Experimental autoimmune encephalomyelitis (EAE) is a demyelinating disease of the central nervous system that can be induced in susceptible strains of mice and rats by immunization with myelin basic protein, proteolipid protein (PLP), or their immunodominant T cell determinants, or by injection of CD4-positive T cell clones specific for those determinants. EAE serves as an animal model of human multiple sclerosis. In both diseases, circulating leukocytes such as T cells and monocytes penetrate the blood/brain barrier and damage myelin, resulting in paralysis.
EAE was induced in female SJL/J mice (8 to 14 weeks old) by immunization on day zero with 50 μg of a peptide corresponding to positions 139-151 of PLP emulsified in a 1:1 mixture of PBS and complete Freund's adjuvant (CFA). […]
Mice were observed daily, beginning at day 8 for clinical signs of EAE, and disease was scored on a scale of 0-5 as: 0=no disease; 1=floppy tail; 2=moderate hind limb weakness; 3=paraparesis; 4=paraplegis with moderate forelimb weakness; 5=qualdriplegis or premoribund state. […]
Summed or averaged scores for clinical signs were plotted vs. time. The area under the resulting curves was calculated between day 8 and day 35 to calculate percentage inhibition of EAE by an inhibitor peptide. The percent inhibition was calculated as follows: […]

Series [10] is described as follows: Water solubility. It is filed as physicochemical.
Series [11] has as its target T1, VLA-4. As to conditions: cited from earlier work.
Where [12] appears, read: 100 mg/kg single nebulizer administration, early phase 2-4 hours, versus challenged controls.
Where [13] appears, read: 100 mg/kg single nebulizer administration, late phase 24 hours, versus challenged controls.
Setting [14] is: normalized IC50 relative to standard peptide of SEQ ID NO:3 (=1), about one-tenth or less of the standard is assigned zero.

T1 sequence (P13612 34-1032): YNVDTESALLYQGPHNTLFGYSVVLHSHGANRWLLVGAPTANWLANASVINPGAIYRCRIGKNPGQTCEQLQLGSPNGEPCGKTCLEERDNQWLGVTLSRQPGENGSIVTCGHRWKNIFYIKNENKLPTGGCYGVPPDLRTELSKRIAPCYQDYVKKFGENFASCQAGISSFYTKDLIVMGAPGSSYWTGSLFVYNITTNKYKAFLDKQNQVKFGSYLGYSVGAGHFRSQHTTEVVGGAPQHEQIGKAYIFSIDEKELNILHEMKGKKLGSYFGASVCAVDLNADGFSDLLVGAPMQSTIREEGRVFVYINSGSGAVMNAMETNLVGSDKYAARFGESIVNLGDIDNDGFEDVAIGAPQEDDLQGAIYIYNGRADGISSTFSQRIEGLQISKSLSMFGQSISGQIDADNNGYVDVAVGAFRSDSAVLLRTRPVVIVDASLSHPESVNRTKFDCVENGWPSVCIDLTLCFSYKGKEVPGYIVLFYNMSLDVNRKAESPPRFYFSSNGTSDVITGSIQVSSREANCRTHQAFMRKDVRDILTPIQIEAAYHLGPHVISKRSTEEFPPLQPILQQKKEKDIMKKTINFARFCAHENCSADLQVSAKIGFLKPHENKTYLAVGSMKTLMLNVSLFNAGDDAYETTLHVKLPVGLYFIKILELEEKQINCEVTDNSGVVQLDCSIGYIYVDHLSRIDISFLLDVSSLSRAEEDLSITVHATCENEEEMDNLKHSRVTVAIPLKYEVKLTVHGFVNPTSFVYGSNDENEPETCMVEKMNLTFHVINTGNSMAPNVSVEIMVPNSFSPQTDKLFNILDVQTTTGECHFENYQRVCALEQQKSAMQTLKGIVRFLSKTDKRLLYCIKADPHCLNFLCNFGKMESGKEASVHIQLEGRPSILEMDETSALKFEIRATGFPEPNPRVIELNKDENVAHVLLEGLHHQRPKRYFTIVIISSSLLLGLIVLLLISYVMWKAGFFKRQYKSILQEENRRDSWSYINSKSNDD
T1 sequence (P05556 21-798): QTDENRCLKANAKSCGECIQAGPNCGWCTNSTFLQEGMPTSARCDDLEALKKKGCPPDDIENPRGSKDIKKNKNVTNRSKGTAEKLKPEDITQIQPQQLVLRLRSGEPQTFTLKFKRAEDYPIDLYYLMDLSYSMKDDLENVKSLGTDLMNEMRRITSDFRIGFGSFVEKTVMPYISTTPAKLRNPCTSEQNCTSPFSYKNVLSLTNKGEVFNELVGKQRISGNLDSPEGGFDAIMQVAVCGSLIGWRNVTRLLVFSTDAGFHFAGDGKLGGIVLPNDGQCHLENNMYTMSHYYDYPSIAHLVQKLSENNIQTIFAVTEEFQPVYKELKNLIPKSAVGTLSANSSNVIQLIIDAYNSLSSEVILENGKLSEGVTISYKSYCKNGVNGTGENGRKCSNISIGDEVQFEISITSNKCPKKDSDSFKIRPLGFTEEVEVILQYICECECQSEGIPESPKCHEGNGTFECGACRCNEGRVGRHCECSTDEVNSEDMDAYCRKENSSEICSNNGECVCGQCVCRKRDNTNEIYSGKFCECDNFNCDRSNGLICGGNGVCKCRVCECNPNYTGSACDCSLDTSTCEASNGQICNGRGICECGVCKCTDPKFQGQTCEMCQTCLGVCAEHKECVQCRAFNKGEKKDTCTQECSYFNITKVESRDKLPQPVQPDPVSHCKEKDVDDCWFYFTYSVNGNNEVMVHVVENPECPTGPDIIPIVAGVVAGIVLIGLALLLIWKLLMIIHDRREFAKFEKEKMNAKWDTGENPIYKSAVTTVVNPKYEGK

Consider `CC[C@H](C)[C@H](NC(=O)[C@H](CCC(=O)O)NC(=O)[C@@H]1CCCN1C(=O)CNC(=O)[C@H](Cc1c[nH]cn1)NC(=O)[C@H](CC(C)C)NC(=O)[C@H](CC(N)=O)NC(=O)[C@@H]1CCCN1C(=O)[C@H](Cc1c[nH]cn1)NC(=O)[C@@H]1CCCN1C(=O)[C@H](CC(C)C)NC(=O)[C@@H](NC(=O)[C@@H](NC(=O)[C@H](CC(C)C)NC(=O)[C@H](CCC(N)=O)NC(=O)[C@@H]1CCCN1C(=O)[C@H](CC(C)C)NC(=O)[C@H](CCC(=O)O)NC(=O)[C@@H](N)CC(=O)O)C(C)C)[C@@H](C)O)C(=O)N[C@@H](CC(C)C)C(=O)N[C@@H](CC(=O)O)C(=O)N[C@H](C(=O)N1CCC[C@H]1C(=O)N[C@@H](CO)C(=O)N[C@H](C(=O)O)[C@@H](C)O)C(C)C` [CS-1 peptide] (H-DELPQLVTLPHPNLHGPEILDVPST-OH), for which the “inhibition of contact hypersensitivity” value in [1] (Elices et al. 1993) is “unable to reproduce inhibition”. Also, in series [1] (Ferguson et al. 1991), the “inhibition of recruitment of T lymphocytes to skin inflammatory sites” value is on record as “partially inhibited”. In addition, the “clearance from blood circulation” value in [2] is reported as “rapidly cleared”.

Turning to `CC(C)C[C@H](NC(=O)Cc1ccccc1)C(=O)N[C@@H](CC(=O)O)C(=O)N[C@@H](Cc1ccccc1)C(=O)N1CCOCC1` [X L D F Z phenylacetyl morpholinamide, N-phenylacetyl-Leu-Asp-Phe-morpholinamide] (PhAc-Leu-Asp-Phe-Morpholide), in series [3] (setting [12]), the “Cdyn, % Reduction, Early phase” value came to 94.4% and the “RL, % Reduction, Early phase” value came to 80.1%. Further, in series [3] (setting [13]), the “Cdyn, % Reduction, Late phase” value worked out at 86.6% and the “RL, % Reduction, Late phase” value is 82.6%. For the same molecule, the “Cdyn value over six hours after challenge” value in [3] (FIG. 4A, 100 mg/kg nebulized) is “stayed at about the initial value”. The “RL values over six hours after challenge” value in series [3] (FIG. 4B, 100 mg/kg nebulized) is listed as ≤ 200% of initial value. Besides, the IC50 in series [4] (Jurkat cells / solid phase-bound CS-1, read-out: absolute IC50 value) lay within 180 to 300 nM. The “RELATIVE POTENCY (relative peptide inhibition of VLA-4 binding CS-1)” value in [4] (setting [14]) came out at 844. For the same molecule, in series [5], the “loss of potency after 24 hours” value is recorded as “no loss of potency”.

For `CC(C)C[C@H](NC(=O)Cc1ccccc1)C(=O)N[C@@H](CC(=O)O)C(=O)N[C@@H](Cc1ccccc1)C(=O)N1CCC[C@@H]1C(N)=O` [X L D F p phenylacetyl amide, N-phenylacetyl-Leu-Asp-Phe-D-Pro-NH2] (PhAc-LDF[dP]-NH2), the “reduction of inflammation (ear swelling diameter at challenge site)” value in [6] is listed as “reduced this type of CS-1/VLA-4-mediated immunoinflammation”. Also, the toxicity result in series [7] is “no toxicity”. In addition, in series [8] (59 vessels of two rabbits, saline 35, basal about 15), the “percentage of IEL thickening based on total coronary vessel area (lesion severity)” value is listed as “about 18%”. Also, in series [8] (141 vessels of two rabbits, saline about 80, basal about 20), the “vessels exhibiting IEL thickening” value is on record as “about 30%”. The “clinical signs of EAE” value in series [9] was “marked improvement in clinical signs”. Further, in series [4], the IC50 is roughly 500 nM and the “binding inhibition better than the standard 10-mer peptide of SEQ ID NO:3” value was “about 312 times”. Moreover, the “RELATIVE POTENCY (relative peptide inhibition of VLA-4 binding CS-1)” value in series [4] (setting [14]) stood at 313. Besides, in [5], the “loss of potency after 24 hours” value was “no loss of potency”.

In the case of `CC(C)C[C@H](NC(=O)Cc1ccccc1)C(=O)N[C@@H](CC(=O)O)C(=O)NCCc1ccccc1` [X L D Z phenylacetyl phenethylamide] (PhAc-Leu-Asp-NHPhenethyl), the “RELATIVE POTENCY (relative peptide inhibition of VLA-4 binding CS-1)” value in [4] (setting [14]) is 19.

Consider `CC(C)C[C@H](NC(=O)[C@H](N)Cc1ccccc1)C(=O)N[C@@H](CC(=O)O)C(=O)N[C@H](C(=O)N1CCC[C@@H]1C(=O)O)C(C)C` [f L D V p free amine free acid] (H-[dF]LDV[dP]-OH), for which the “RELATIVE POTENCY (relative peptide inhibition of VLA-4 binding CS-1)” value in series [4] is recorded as 0.

With `CCCCCCCCCCCCCCCCCCNC(=O)CCCCCNC(=O)[C@@H]1CCCN1C(=O)[C@H](Cc1ccccc1)NC(=O)[C@H](CC(=O)O)NC(=O)[C@H](CC(C)C)NC(=O)Cc1ccccc1` [phenylacetyl-Leu-Asp-Phe-Pro-NH(CH2)5 C(O)NHC18 H37] (PhAc-LDFP[Ahx]-NHOctadecyl), the water solubility entry in series [10] is listed as “not water-soluble”. The “RELATIVE POTENCY (relative peptide inhibition of VLA-4 binding CS-1)” value in [4] (setting [14]) amounted to 1.

In the case of Leu-Asp-Val [LDV], in series [11], the “affinity of VLA-4 lower than for the native CS-1 25-mer” value is on record as “at least two”.

For the molecule “Z X F L D F p: X = ε-amidocaproyl, Z = Europium label (diethylenetriaminepentaacetatoeuropium), C-terminal amide ({code Z-ε‑amidocaproyl}-FLDF[dP]-NH2; also: europium chelate)”, in series [4], the “binding inhibition better than the standard 10-mer peptide of SEQ ID NO:3” value is “about 120 times”. Also, the “RELATIVE POTENCY (relative peptide inhibition of VLA-4 binding CS-1)” value in series [4] (setting [14]) was determined as 118.

The record behind these values is patent US5688913A, “CS-1 peptidomimetics, compositions and methods of using the same” (Cytel Corporation, priority 1995, dated 1997).
